Data from BindingDB's records for doi:10.1016/j.bmcl.2005.01.004 (Wyeth-Ayerst Research, 2005).

Target: Proto-oncogene tyrosine-protein kinase Src (Homo sapiens, UniProt P12931)
Assay: Homogeneous Time-resolved Fluorescence (HTRF) Assay
Description: Kinase assays were performed using the europium/APC detection format (LANCE, Perkin Elmer). HTRF is based on the proximity of europium cryptate (donor fluorophore)-labeled antiphosphotyrosine and streptavidin labeled with APC(allophycocyanin), which have been brought together by a binding reaction.

Chain of Proto-oncogene tyrosine-protein kinase Src (P12931 2-536 limits assumed): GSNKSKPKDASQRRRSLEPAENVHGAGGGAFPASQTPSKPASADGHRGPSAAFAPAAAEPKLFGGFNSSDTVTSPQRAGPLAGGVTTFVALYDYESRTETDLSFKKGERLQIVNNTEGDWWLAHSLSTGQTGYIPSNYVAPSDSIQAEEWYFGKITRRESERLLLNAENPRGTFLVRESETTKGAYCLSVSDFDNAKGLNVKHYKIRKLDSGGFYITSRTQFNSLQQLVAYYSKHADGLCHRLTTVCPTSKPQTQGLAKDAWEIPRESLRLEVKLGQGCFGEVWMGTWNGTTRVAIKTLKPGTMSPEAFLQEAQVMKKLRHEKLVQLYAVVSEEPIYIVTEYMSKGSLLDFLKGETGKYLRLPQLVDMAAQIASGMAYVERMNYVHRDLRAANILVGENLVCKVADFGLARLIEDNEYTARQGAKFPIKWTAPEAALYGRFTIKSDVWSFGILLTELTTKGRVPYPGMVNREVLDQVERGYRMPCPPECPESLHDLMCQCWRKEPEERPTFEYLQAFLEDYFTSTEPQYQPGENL

IC50 | Structure (SMILES)
11 nM | COc1cc2c(Nc3cc(OC)c(OC)c(OC)c3)c(C#N)cnc2cc1/C=C/c1cc[n+]([O-])cc1 [4-[(E)-2-{3-cyano-6-methoxy-4-[(3,4,5-trimethoxyphenyl)amino]quinolin-7-yl}ethenyl]-1-oxidopyridin-1-ium]
1000 nM | N#Cc1cnc2cc(/C=C/c3ccncc3)ccc2c1NCc1cc(Cl)cc(Cl)c1 [4-{[(3,5-dichlorophenyl)methyl]amino}-7-[(E)-2-(pyridin-4-yl)ethenyl]quinoline-3-carbonitrile]
